Paper PMC10002984, “Dual PTP1B/TC-PTP Inhibitors: Biological Evaluation of 3-(Hydroxymethyl)cinnoline-4(1H)-Ones” (International Journal of Molecular Sciences, 2023)

Assays:
Shp1 gene = assay: Gene expression in the liver of obese rats (qPCR), Shp1 gene; type: in vivo, rat; conditions: five-day treatment
Procedure: Further, six groups were formed: control (Con, n = 10), obesity (Ob, n = 10), obese rats with five-day treatment with compounds 1 (Ob + 1, n = 5), 2 (Ob + 2, n = 5), 3 (Ob + 3, n = 10), and 4 (Ob + 4, n = 10). All compounds were administered in DMSO (300 µL) at a daily dose of 7 mg/kg (1 and 2), 8 mg/kg (3), and 10 mg/kg (4) (i.p.), based on the results of the preliminary experiments. The used doses of compounds 1–4, in terms of the number of moles of each compound per kg of animal body weight, were equivalent. Control and obese rats received DMSO in the same volumes (300 µL), instead of the tested compounds. During the five days of the experiment, all animals were transferred to standard food and had free access to food and drinking water. […] The test was carried out on the morning of the next day after the last (fifth) injection of the compounds or DMSO, after a 10 h fast. The rest of the animals (n = 5 in each group) were anesthetized and decapitated on the last day of the experiment. The blood and liver samples were taken to measure blood glucose and hormone levels and gene expression in the liver.
The total RNA was isolated from the liver samples of rats using the “ExtractRNA Reagent” (Evrogen, Moscow, Russia), and the samples containing 1 μg of RNA were transcribed to cDNA using the random oligodeoxynucleotide primers and the “MMLV RT kit” (Evrogen, Russia). The amplification procedure was carried out in the mixture containing 10 ng of reverse transcribed product, 0.4 μM of the forward and reverse primers, and the “qPCRmix-HS SYBR + LowROX kit” (Evrogen, Russia). The amplified signals were detected using the “Applied Biosystems® 7500 Real-Time PCR System” (Life Technologies, Carlsbad, CA, USA, Thermo Fisher Scientific Inc., USA). The primers that were used to assess the expression of genes encoding the phosphatase PTP1B, TC-PTP, and SHP1 and the insulin and leptin receptors are presented in Table 4. The obtained data were calculated with the delta–delta Ct method and expressed as a fold expression, relative to the corresponding control. The expression of the gene encoding 18S RNA was used as an endogenous control.

[1] = molecular target: T1, recombinant human PTP1B protein (Homo sapiens, UniProt P18031); assay: Phosphatase activity assay with DiFMUP, PTP1B inhibition; type: biochemical; conditions: for IC50: DiFMUP 25 µM, 80 ng/mL PTP1B, compounds 0.1–80 μM, M ± SEM (n = 24), read-out: IC50 for the inhibitory effect on PTP1B activity
T1 construct: purchased Abcam ab51277
T1 sequence (P18031 1-321 limits assumed): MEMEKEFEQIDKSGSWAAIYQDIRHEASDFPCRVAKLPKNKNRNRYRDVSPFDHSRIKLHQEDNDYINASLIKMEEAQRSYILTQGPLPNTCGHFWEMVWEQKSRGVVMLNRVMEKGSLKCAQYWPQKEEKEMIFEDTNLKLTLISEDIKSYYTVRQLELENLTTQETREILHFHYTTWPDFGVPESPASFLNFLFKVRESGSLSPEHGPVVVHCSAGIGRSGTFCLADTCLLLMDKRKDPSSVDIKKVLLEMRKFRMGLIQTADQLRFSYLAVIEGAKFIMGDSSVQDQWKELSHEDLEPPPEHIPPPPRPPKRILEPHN
Procedure: The measurement of the activity of the phosphatases PTP1B and TC-PTP and their inhibition was carried out using 6,8-difluoro-4methylumbelliferyl phosphate (DiFMUP), as previously described. The stock solution of recombinant human PTP1B protein (#ab51277, Abcam, Cambridge, UK), at a concentration of 1 µg/µL, was prepared in 25 mM Tris–HCl (pH 7.5), 20% glycerol, 2 mM β-mercaptoethanol, 1 mm EDTA, and 1 mM DTT, and stored at −20 °C. Active human recombinant TC-PTP protein was purchased from Sigma-Aldrich (#SRP0218, Saint Louis, MO, USA) as the aqueous buffer solution at a concentration of 2.9 mg/mL, and aliquots were stored at −80 °C. The fluorogenic substrate DiFMUP (#D6567, Molecular Probes, Thermo Fisher Scientific, Waltham, MA, USA) was dissolved at a concentration of 10 mM in N,N-dimethylformamide and stored in aliquots at −20 °C. The 6,8-difluoro-7-hydroxy-4-methylcoumarin (DiFMU, #D6566, Molecular Probes, Thermo Fisher Scientific, Waltham, MA, USA) was used as a reference fluorescent standard. For the IC50 determination, the assay was carried out in black flat bottom 96-well plates using a reaction volume of 100 µL. The phosphatases (PTP1B or TC-PTP) were preincubated with the tested compounds (0.1–80 µM) in 50 mM HEPES (pH 6.9), 100 mM NaCl, 1 mM EDTA, 2 mM DTT, 0.1 mg/mL BSA for 5 min at 37 °C. The following concentrations of the compounds were studied: 0.1, 0.2, 0.5, 1, 2, 5, 10, 20, 40, and 80 μM. The reactions were initiated by the addition of the fluorogenic substrate DiFMUP and diluted in the assay buffer. Progress curves for hydrolysis reaction were obtained with 25 µM of DiFMUP for 80 ng/mL PTP1B, and 35 µM of DiFMUP for 80 ng/mL TC-PTP. Fluorescence excitation of hydrolyzed DiFMUP and the fluorescent standard DiFMU was monitored at 355 nm and emission was detected at 460 nm for 6–10 min at 30 s intervals in a Fluoroskan Ascent FL microplate reader (Thermo Electron Corporation, Vantaa, Finland). Initial velocities of the reactions were used to calculate the IC50 values using GraphPad Prism.
The data on food intake, body weight, and biochemical parameters in rats, as well as the PCR data, were analyzed using the IBM SPSS Statistics 22 software (“IBM”, Armonk, NY, USA), and the results are presented as mean ± standard error of the mean (M ± SEM). All differences are considered significant at p < 0.05. The calculation of the IC50 values of the studied inhibitors for the initial velocities of enzymatic reactions (PTP1B, TC-PTP) was carried out using the nonlinear regression analysis with GraphPad Prism 8 (“GraphPad Software, Inc.”, Boston, MA, USA). The statistical analysis was carried out using the Wilcoxon test for pairwise comparison and Dunn’s test for multiple comparisons.

IC50 [1]	selectivity for PTP1B compared to that for TC-PTP ([1]; from IC50 values of Table 1)	SMILES	expression of the Shp1 gene in the liver (Shp1 gene)
11 ± 1.34 µM		O=c1c(CO)n[nH]c2ccc(Br)cc12 [Compound 4, 6-Bromo-3-(hydroxymethyl)cinnolin-4(1H)-one]	did not affect
5.11 ± 0.57 µM		O=c1c(CO)n[nH]c2ccc(Cl)cc12 [Compound 3, 6-Chloro-3-(hydroxymethyl)cinnolin-4(1H)-one]	did not affect
3.78 ± 0.34 µM	5–7 fold	O=c1c(CO)n[nH]c2ccccc12 [Compound 1]	increased
